Measurements taken from the NIST ThermoML archive (doi:10.1021/je700345b).
Values joined by “and” are separate entries in the source; they are usually repeats but may differ in a detail not shown here. Equal values may be shown once.

Experiment: wn = mass fraction of the nth substance listed
Settings: Liquid, w2 = 0.5

CC(F)(F)F [1,1,1-trifluoroethane] + FC(F)C(F)(F)F
Settings	viscosity
253.26 K, 2000 kPa	0.237 mPa·s
253.26 K, 2010 kPa	0.2374 mPa·s
253.26 K, 2090 kPa	0.2377 mPa·s
253.26 K, 2170 kPa	0.2378 mPa·s
253.26 K, 2180 kPa	0.2371 mPa·s
253.26 K, 2220 kPa	0.2379 mPa·s
253.26 K, 3370 kPa	0.2426 mPa·s
253.26 K, 3380 kPa	0.2427 mPa·s
253.26 K, 3390 kPa	0.2427 mPa·s
253.26 K, 3410 kPa	0.2425 mPa·s
253.26 K, 4930 kPa	0.2479 mPa·s
253.26 K, 4960 kPa	0.2479 mPa·s
253.26 K, 4970 kPa	0.248 mPa·s
253.26 K, 4990 kPa	0.2482 mPa·s
253.26 K, 5020 kPa	0.2483 mPa·s
253.26 K, 5070 kPa	0.2487 mPa·s
253.26 K, 7440 kPa	0.2574 mPa·s
253.26 K, 7500 kPa	0.2576 mPa·s
253.26 K, 7620 kPa	0.258 mPa·s
253.26 K, 7720 kPa	0.2587 mPa·s
263.23 K, 1990 kPa	0.2076 mPa·s
263.23 K, 2020 kPa	0.2074 mPa·s
263.23 K, 2070 kPa	0.2081 mPa·s
263.23 K, 2120 kPa	0.2077 mPa·s
263.23 K, 3660 kPa	0.2139 mPa·s
263.23 K, 3670 kPa	0.2137 mPa·s and 0.2139 mPa·s
263.23 K, 3680 kPa	0.2138 mPa·s and 0.2137 mPa·s
263.23 K, 3720 kPa	0.214 mPa·s
263.23 K, 3780 kPa	0.214 mPa·s
263.23 K, 4690 kPa	0.2177 mPa·s
263.23 K, 4990 kPa	0.2192 mPa·s
263.23 K, 5010 kPa	0.2195 mPa·s
263.23 K, 7000 kPa	0.2258 mPa·s
263.23 K, 7050 kPa	0.2257 mPa·s
263.23 K, 7190 kPa	0.2262 mPa·s
263.23 K, 7220 kPa	0.227 mPa·s
273.24 K, 2150 kPa	0.1827 mPa·s
273.24 K, 2160 kPa	0.1825 mPa·s
273.24 K, 2190 kPa	0.1826 mPa·s and 0.1823 mPa·s
273.24 K, 2230 kPa	0.1829 mPa·s
273.24 K, 2260 kPa	0.1829 mPa·s
273.24 K, 2270 kPa	0.1829 mPa·s
273.24 K, 3450 kPa	0.1878 mPa·s and 0.1876 mPa·s
273.24 K, 3470 kPa	0.1877 mPa·s
273.24 K, 3480 kPa	0.1873 mPa·s
273.24 K, 3500 kPa	0.1878 mPa·s
273.24 K, 5030 kPa	0.1923 mPa·s
273.24 K, 5040 kPa	0.1925 mPa·s
273.24 K, 5060 kPa	0.1925 mPa·s
273.24 K, 7360 kPa	0.2011 mPa·s
273.24 K, 7450 kPa	0.2008 mPa·s
273.24 K, 7520 kPa	0.2015 mPa·s
273.24 K, 9710 kPa	0.2103 mPa·s
273.24 K, 9880 kPa	0.2106 mPa·s and 0.2104 mPa·s
283.34 K, 2000 kPa	0.1592 mPa·s
283.34 K, 2060 kPa	0.1592 mPa·s
283.34 K, 2120 kPa	0.1591 mPa·s
283.34 K, 2160 kPa	0.1591 mPa·s
283.34 K, 2220 kPa	0.1593 mPa·s
283.34 K, 2230 kPa	0.1592 mPa·s and 0.1596 mPa·s
283.34 K, 2250 kPa	0.1596 mPa·s
283.34 K, 2260 kPa	0.1595 mPa·s
283.34 K, 2270 kPa	0.1597 mPa·s
283.34 K, 3720 kPa	0.165 mPa·s
283.34 K, 3770 kPa	0.1651 mPa·s and 0.1654 mPa·s
283.34 K, 3820 kPa	0.1654 mPa·s
283.34 K, 3860 kPa	0.1655 mPa·s
283.34 K, 3880 kPa	0.1657 mPa·s
283.34 K, 4970 kPa	0.1693 mPa·s
283.34 K, 5000 kPa	0.1693 mPa·s
283.34 K, 5030 kPa	0.1696 mPa·s
283.34 K, 5040 kPa	0.1695 mPa·s
283.34 K, 7600 kPa	0.178 mPa·s
283.34 K, 7640 kPa	0.1783 mPa·s
283.34 K, 7680 kPa	0.1784 mPa·s
283.34 K, 9750 kPa	0.1851 mPa·s
283.34 K, 9860 kPa	0.1854 mPa·s
283.34 K, 9900 kPa	0.1857 mPa·s
283.34 K, 9920 kPa	0.1857 mPa·s
283.34 K, 9930 kPa	0.1856 mPa·s
293.33 K, 1920 kPa	0.1394 mPa·s
293.33 K, 1940 kPa	0.1392 mPa·s
293.33 K, 1970 kPa	0.1396 mPa·s
293.33 K, 2020 kPa	0.1394 mPa·s
293.33 K, 3570 kPa	0.145 mPa·s
293.33 K, 3690 kPa	0.1454 mPa·s
293.33 K, 3720 kPa	0.1455 mPa·s
293.33 K, 3750 kPa	0.1457 mPa·s
293.33 K, 4910 kPa	0.1503 mPa·s and 0.15 mPa·s
293.33 K, 5000 kPa	0.1506 mPa·s
293.33 K, 5030 kPa	0.1506 mPa·s
293.33 K, 7510 kPa	0.1585 mPa·s
293.33 K, 7540 kPa	0.1584 mPa·s
293.33 K, 7560 kPa	0.1584 mPa·s
293.33 K, 9770 kPa	0.1667 mPa·s
293.33 K, 9810 kPa	0.1669 mPa·s
293.33 K, 9850 kPa	0.1666 mPa·s
293.33 K, 9880 kPa	0.1669 mPa·s
293.33 K, 9930 kPa	0.1672 mPa·s
